Assay [1] addresses T1, GluD2-Lc(A686S) (Rattus norvegicus, UniProt Q63226, A654T/A686S).
T1 construct: the function of full-length receptors as well, we introduced them into the GluD2 lurcher mutant (GluD2-Lc); expressed in transfected cells; host or cells: Xenopus laevis oocytes injected with cRNA
T1 sequence (Q63226 24-1007 A654T/A686S): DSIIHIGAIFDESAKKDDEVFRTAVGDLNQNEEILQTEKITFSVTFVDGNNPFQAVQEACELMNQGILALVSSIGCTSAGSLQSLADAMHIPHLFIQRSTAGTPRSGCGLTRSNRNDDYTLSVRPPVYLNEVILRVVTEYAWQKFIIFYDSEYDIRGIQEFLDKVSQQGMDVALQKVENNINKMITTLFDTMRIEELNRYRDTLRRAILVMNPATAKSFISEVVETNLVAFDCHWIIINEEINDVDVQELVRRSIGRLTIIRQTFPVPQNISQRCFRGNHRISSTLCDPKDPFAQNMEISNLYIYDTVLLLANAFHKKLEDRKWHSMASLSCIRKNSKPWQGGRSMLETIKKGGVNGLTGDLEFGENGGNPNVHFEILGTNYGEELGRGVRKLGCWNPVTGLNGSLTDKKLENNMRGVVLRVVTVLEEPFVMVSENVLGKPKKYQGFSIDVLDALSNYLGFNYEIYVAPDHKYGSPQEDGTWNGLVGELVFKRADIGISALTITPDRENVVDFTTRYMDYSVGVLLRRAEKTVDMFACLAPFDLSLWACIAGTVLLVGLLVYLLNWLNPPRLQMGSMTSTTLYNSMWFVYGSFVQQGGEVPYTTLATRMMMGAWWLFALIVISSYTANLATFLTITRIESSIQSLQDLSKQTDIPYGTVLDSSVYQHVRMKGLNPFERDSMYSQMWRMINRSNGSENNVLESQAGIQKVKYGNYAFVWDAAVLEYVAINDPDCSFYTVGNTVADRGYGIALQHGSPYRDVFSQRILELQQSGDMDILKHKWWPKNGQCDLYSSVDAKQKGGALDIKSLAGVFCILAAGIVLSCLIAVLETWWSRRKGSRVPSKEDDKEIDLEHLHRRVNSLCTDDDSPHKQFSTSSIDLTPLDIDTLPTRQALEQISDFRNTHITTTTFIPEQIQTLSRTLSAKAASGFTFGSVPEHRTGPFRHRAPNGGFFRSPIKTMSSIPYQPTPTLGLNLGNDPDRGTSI
The assay can be described thus: Two-electrode voltage clamp in Xenopus oocytes, inhibition of spontaneous currents. Format: cell-based. The settings on record: fraction of spontaneous current inhibited by saturating D-serine. An excerpt: (§1) All cDNAs for expression in Xenopus oocytes were cloned into the vector pSGEM[30]. Point mutants of GluD2-Lc were constructed by overlap extension PCR with mutagenic oligonucleotide primers. The GluD2-Lc-(H)GluN1 chimera was constructed by transferring the S1- and S2-encoding sequences from GluD2-LBD-(H)GluN1 to GluD2-Lc via overlap extension PCR using tail primers. The S1 and S2 sequences were transferred separately, yielding GluD2-Lc-(HS1)GluN1 and GluD2-Lc-(HS2)GluN1 constructs. GluD2-Lc-(H)GluN1 was then produced from these by another overlap extension PCR. Complementary RNA (cRNA) for injection into oocytes was synthesised from 1 μg of linearised template DNA with the mMESSAGE mMACHINE in vitro transcription kit (Ambion, Austin, TX, USA).
(§2) Oocytes were obtained by surgically removing parts of the ovaries from Xenopus laevis (Nasco, Fort Atkinson, WI, USA) anaesthetised with 1.5 g/L 3-aminobenzoic acid ethylester (Sigma, Taufkirchen, Germany). […] Oocytes were injected with 11 ng cRNA (10 ng of each cRNA for co-expression of GluN1 and GluN2A) using a nanoliter injector (WPI, Sarasota, FL, USA). Four days after cRNA injection, current responses were recorded under voltage clamp at –70 mV with a Turbo Tec-10CD amplifier (npi electronic, Tamm, Germany) controlled by Patchmaster software (HEKA, Lambrecht, Germany). Currents were filtered with a 20 Hz low-pass filter and then digitised with a sampling rate of 50 Hz. Recording electrodes were pulled from borosilicate glass (Hilgenberg, Malsfeld, Germany) with an L/M-3P-A vertical pipette puller (List-Medical), filled with 3 M KCl, and had resistances of 0.5–5 MΩ (voltage electrode) or 0.5–1.5 MΩ (current electrode). Recordings were performed in a 50 μL chamber under constant superfusion with extracellular solution at a flow rate of 3–5 mL/min. […] Finally, Ba-NFR and then NMDGR were applied again to check for reversibility.

Assay [2] addresses T2, GluD2-Lc(S544G)-(HS2)GluN1 (Rattus norvegicus, UniProt Q63226, A654T/A766F/D767R/N763E/R768S/S544G/T764L/V761T/V765F).
T2 construct: the function of full-length receptors as well, we introduced them into the GluD2 lurcher mutant (GluD2-Lc); expressed in transfected cells; host or cells: Xenopus laevis oocytes injected with cRNA
T2 sequence (Q63226 24-1007 S544G/A654T/V761T/N763E/T764L/V765F/A766F/D767R/R768S): T1 sequence (Q63226 24-1007 A654T/A686S) with S521G, S663A, V738T, N740E, T741L, V742F, A743F, D744R, R745S
The description is as above. In kind it is cell-based. The settings on record: fraction of spontaneous current inhibited by saturating D-serine.
Source text: as §1, §2

Substitutions are numbered along the chain they refer to.

Experimental findings from paper PMC5384001 (Scientific Reports, 2017) are described below.

For the compound `N[C@H](CO)C(=O)O` [D-serine], the “D-serine efficacy Mean ± SEM” value in assay [1] came out at 43.9 ± 0.7%; in assay [2], 40.6 ± 0.5%.
